This is an account of results in patent US20230365589A1, “NOVEL AMINE DERIVATIVES” (Sumitomo Pharma Co., Ltd., priority 2020, published 2023).

Holding throughout (assay type): biochemical
One assay addresses T1, DYRK1A (Homo sapiens, UniProt Q13627).
T1 construct: purchased Carna Biosciences, Inc. 04-130
Kind of assay: Inhibition test on activity of DYRK family, mobility shift assay (MSA): DYRK1A. The settings on record: MSA, FITC-labeled DYRKtide peptide, ATP 100 μM; read-out: Inhibitory activity DYRK 1A (IC50 class). In outline: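 Mobility shift assay with recombinant DYRK1A (0.2 ng/μL enzyme solution), FITC-DYRKtide substrate (4 μM in substrate mix), 100 μM ATP in substrate mix, HEPES pH 7.5 buffer with MgCl2; 1 h at room temperature. Phosphorylated vs unphosphorylated peptide peaks quantified; IC50 from regression of inhibition rate against log concentration.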

A further assay deals with T2, DYRK3 (Homo sapiens, UniProt O43781).
T2 construct: purchased Carna Biosciences, Inc. 04-133
T2 sequence (O43781 1-568 isoform O43781-2): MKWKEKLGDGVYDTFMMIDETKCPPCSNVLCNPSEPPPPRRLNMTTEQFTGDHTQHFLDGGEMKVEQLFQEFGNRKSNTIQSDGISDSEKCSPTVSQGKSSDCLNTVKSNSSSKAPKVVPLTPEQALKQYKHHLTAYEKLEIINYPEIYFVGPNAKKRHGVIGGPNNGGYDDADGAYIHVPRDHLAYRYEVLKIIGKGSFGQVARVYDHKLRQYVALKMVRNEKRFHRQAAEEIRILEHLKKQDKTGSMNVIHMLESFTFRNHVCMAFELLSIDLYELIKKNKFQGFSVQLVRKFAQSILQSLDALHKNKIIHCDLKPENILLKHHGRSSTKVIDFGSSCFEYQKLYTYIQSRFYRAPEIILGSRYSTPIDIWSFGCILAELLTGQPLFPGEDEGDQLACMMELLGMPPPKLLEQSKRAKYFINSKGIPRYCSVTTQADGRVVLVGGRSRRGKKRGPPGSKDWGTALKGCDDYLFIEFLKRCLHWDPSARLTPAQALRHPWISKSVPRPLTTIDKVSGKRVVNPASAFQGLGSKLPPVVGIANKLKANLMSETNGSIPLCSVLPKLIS
As to the kind of experiment: Inhibition test on activity of DYRK family, mobility shift assay (MSA): DYRK3. The settings on record: MSA, FITC-labeled DYRKtide peptide, ATP 20 μM; read-out: Inhibitory activity DYRK 3 (IC50 class). The gist of the method: (§1)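 Mobility-shift readout of FITC-DYRKtide phosphorylation in 20 mM HEPES pH 7.5. The substrate mix held 4 µM peptide, 20 mM MgCl2 and ATP at 100 (1A), 200 (1B), 40 (2) or 20 µM (3). Reaction 1 h at room temperature; IC50 from regression of P/(P+S)-based inhibition vs log concentration.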

Another assay deals with T3, DYRK2 (Homo sapiens, UniProt Q92630).
T3 construct: purchased Carna Biosciences, Inc. 04-132
T3 sequence (Q92630 74-601 limits assumed): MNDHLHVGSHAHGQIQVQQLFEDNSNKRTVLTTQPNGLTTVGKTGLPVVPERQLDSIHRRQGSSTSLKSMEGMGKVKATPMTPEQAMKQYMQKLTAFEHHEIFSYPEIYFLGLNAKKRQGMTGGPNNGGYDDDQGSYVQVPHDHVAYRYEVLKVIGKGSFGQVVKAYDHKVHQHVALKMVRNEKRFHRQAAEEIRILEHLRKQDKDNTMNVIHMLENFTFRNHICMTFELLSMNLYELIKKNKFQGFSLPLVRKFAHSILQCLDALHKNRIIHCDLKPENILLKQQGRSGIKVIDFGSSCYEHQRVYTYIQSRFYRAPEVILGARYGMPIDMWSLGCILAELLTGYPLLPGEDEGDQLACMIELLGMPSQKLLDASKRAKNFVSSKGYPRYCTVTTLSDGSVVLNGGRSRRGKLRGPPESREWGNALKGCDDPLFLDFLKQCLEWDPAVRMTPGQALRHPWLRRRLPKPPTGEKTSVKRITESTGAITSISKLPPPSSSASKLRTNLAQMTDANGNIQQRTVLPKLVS
As to the kind of experiment: Inhibition test on activity of DYRK family, mobility shift assay (MSA): DYRK2. Conditions: MSA, FITC-labeled DYRKtide peptide, ATP 40 μM; read-out: Inhibitory activity DYRK 2 (IC50 class). In outline: as §1

The next assay addresses T4, DYRK1B (Homo sapiens, UniProt Q9Y463).
T4 construct: purchased Carna Biosciences, Inc. 04-131
As to the kind of experiment: Inhibition test on activity of DYRK family, mobility shift assay (MSA): DYRK1B. The settings on record: MSA, FITC-labeled DYRKtide peptide, ATP 200 μM; read-out: Inhibitory activity DYRK 1B (IC50 class). As for the experimental part: [Inhibition Test on Activity of DYRK Family (DYRK1A, DYRK1B, DYRK2, and DYRK3)]
The kinase activity was measured by mobility shift assay (MSA) method using QuickScout Screening Assist™ MSA (commercially available kit manufactured by Carna Biosciences, Inc.). The substrate of the kinase reaction used was an FITC-labeled DYRKtide peptide included in the kit. An assay buffer [20 mM HEPES, 0.01% Triton X-100™, 2 mM dithiothreitol, pH 7.5]was used to create a substrate mixture solution with a substrate (4 μM), MgCl2(20 mM), and ATP (DYRK1A: 100 μM; DYRK1B: 200 μM; DYRK2: 40 μM; and DYRK3: 20 μM). In addition, kinases (DYRK1A: manufactured by Carna Biosciences, Inc., Cat. No. 04-130; DYRK1B: manufactured by Carna Biosciences, Inc., Cat. No. 04-131; DYRK2; manufactured by Carna Biosciences, Inc., Cat. No. 04-132; and DYRK3; manufactured by Carna Biosciences, Inc., Cat. No. 04-133) were diluted with the assay buffer to prepare enzyme solutions (DYRK1A: 0.2 ng/μL; DYRK1B: 0.08 ng/μL; DYRK2: 0.04 ng/μL; and DYRK3: 0.25 ng/μL). The 10 mM solution of the test compound in DMSO was further diluted with DMSO to 10 levels of the concentration (0.00003 mM, 0.0001 mM, 0.0003 mM, 0.001 mM, 0.003 mM, 0.01 mM, 0.03 mM, 0.1 mM, 0.3 mM, and 1 mM), each of which was subjected to 25-fold dilution with the assay buffer to obtain a drug solution (4% DMSO solution). 5 μL of the drug solution or a control solution (4% DMSO-assay buffer), 5 μL of the substrate mixture solution, and 10 μL of the enzyme solution were mixed in the wells of a polypropylene 384-well plate and allowed to react at room temperature for 1 hour, and then the reaction was quenched by adding 60 μL of the termination buffer included in the kit. Subsequently, the quantities of the substrates (S) and the phosphorylated substrate (P) in the reaction solution were measured using LabChip EZ Reader II system (manufactured by Caliper Life Sciences) according to the protocol of the assay kit.
The heights of the peaks of the “substrate” and the “phosphorylated substrate” were expressed as S and P, respectively, and a blank containing the assay buffer instead of the enzyme solution was also measured.
The inhibition rate (%) of the test compound was calculated according to the following equation:
Inhibition rate (%)=(1−(C−A)/(B−A))×100 • wherein, A, B, and C represent P/(P+S) of the blank well, P/(P+S) of the control solution well, and P/(P+S) of the compound-containing well, respectively.
The IC50 value was calculated via a regression analysis of the inhibition rate and the test compound concentration (logarithmic value).
The inhibiting activities of representative compounds of the present invention are shown against DYRK1A, DYRK1B, DYRK2, and DYRK3 in Tables.

The term IC50 denotes the concentration needed to halve the response being measured.

T4 sequence (Q9Y463 whole entry): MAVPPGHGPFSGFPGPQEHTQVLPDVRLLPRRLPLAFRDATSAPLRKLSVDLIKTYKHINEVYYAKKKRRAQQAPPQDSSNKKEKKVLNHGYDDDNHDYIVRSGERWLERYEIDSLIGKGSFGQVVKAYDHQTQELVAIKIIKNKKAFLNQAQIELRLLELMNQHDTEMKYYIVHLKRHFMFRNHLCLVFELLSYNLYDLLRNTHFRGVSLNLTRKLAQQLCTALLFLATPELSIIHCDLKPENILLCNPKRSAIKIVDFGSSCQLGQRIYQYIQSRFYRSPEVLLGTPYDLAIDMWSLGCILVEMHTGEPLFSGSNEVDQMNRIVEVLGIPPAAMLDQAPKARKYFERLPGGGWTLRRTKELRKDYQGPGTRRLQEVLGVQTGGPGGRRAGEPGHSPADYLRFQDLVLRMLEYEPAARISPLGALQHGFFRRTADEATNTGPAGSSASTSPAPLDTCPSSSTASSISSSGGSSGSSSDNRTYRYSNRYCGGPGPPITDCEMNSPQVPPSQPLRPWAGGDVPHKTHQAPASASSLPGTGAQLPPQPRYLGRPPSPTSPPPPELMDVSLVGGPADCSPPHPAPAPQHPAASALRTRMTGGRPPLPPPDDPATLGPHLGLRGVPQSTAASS

Consider `COCCN1CC[C@@H]2NC(=O)N(c3nc4c5c(ccc4s3)OCC5)[C@@H]2C1` (relative stereo) [Example 8, cis-3-(7,8-Dihydrofuro[3,2-e][1,3]benzothiazol-2-yl)-5-(2-methoxyethyl)octahydro-2H-imidazo[4,5-c]pyridin-2-one], for which the 50% inhibitory concentration (IC50) was 10 to 100 nM on DYRK1A, no less than 1000 nM at DYRK3, no less than 1000 nM on DYRK2 and 10 to 100 nM at DYRK1B.

For the compound `O=C1N[C@H]2CO[C@@H](CF)C[C@H]2N1c1nc2c3c(ccc2s1)OCC3` [Example 40, (3aR,6R,7aR)-1-(7,8-dihydrofuro[3,2-e][1,3]benzothiazol-2-yl)-6-(fluoromethyl)hexahydropyrano[3,4-d]imidazol-2(3H)-one], the 50% inhibitory concentration (IC50) at DYRK1A is less than 10 nM; at DYRK3, 10 to 100 nM; on DYRK2 it was 100 to 1000 nM; at DYRK1B, less than 10 nM.

`C[C@@H]1NC(=O)N(c2nc3c4c(ccc3s2)OCC4)[C@@H]1CN1CCOCC1` [Example 23, (4S,5R)-1-(7,8-dihydrofuro[3,2-e][1,3]benzothiazol-2-yl)-4-methyl-5-[(morpholin-4-yl)methyl]imidazolidin-2-one]: the half-inhibitory concentration (IC50) at DYRK1A was less than 10 nM; on DYRK3 it was 100 to 1000 nM; on DYRK2, 100 to 1000 nM; at DYRK1B, less than 10 nM.

For the compound `CC[C@H]1C[C@@H]2[C@H](CO1)NC(=O)N2c1nc2c3c(ccc2s1)OCO3` [Example 138, (3aR,6S,7aR)-1-(2H-[1,3]dioxolo[4,5-e][1,3]benzothiazol-7-yl)-6-ethylhexahydropyrano[3,4-d]imidazol-2(3H)-one], the IC50 on DYRK1A is less than 10 nM; on DYRK3, 100 to 1000 nM; on DYRK2, 100 to 1000 nM; on DYRK1B it was less than 10 nM.

Turning to `CC[C@H]1C[C@@H]2[C@H](CO1)NC(=O)N2c1nc2c3c(ccc2s1)OCC3` [Example 42, (3aR,6S,7aR)-1-(7,8-dihydrofuro[3,2-e][1,3]benzothiazol-2-yl)-6-ethylhexahydropyrano[3,4-d]imidazol-2(3H)-one], the IC50 on DYRK1A was less than 10 nM; at DYRK3 it was 100 to 1000 nM; at DYRK2, 100 to 1000 nM; on DYRK1B, less than 10 nM.

Take `CN1C[C@H]2NC(=O)N(c3nc4c5c(ccc4s3)OCC5)[C@H]2C1` (relative stereo) [Example 14, cis-1-(7,8-dihydrofuro[3,2-e][1,3]benzothiazol-2-yl)-5-methylhexahydropyrrolo[3,4-d]imidazol-2(1H)-one]: the IC50 at DYRK1A lay within 10 to 100 nM; at DYRK3 it was 10 to 100 nM; at DYRK2, 100 to 1000 nM; at DYRK1B, 10 to 100 nM.

On to `CC[C@H]1C[C@@H]2[C@H](CO1)NC(=O)N2c1nc2c3c(ccc2s1)OCCO3` [Example 43, (3aR,6S,7aR)-1-(7,8-dihydro[1,4]dioxino[2,3-e][1,3]benzothiazol-2-yl)-6-ethylhexahydropyrano[3,4-d]imidazol-2(3H)-one], for which the half-maximal inhibitory concentration (IC50) was less than 10 nM at DYRK1A, 100 to 1000 nM on DYRK3, 100 to 1000 nM on DYRK2 and less than 10 nM on DYRK1B.

For `C[C@@H]1C[C@@H]2[C@H](CO1)NC(=O)N2c1nc2c3c(ccc2s1)OCC3` [Example 160], the concentration for half-maximal inhibition (IC50) at DYRK1A is 100 to 1000 nM; at DYRK3, no less than 1000 nM; at DYRK2, no less than 1000 nM; on DYRK1B it was 100 to 1000 nM.

`O=C1N[C@@H]2[C@@H](CO)OC[C@@H]2N1c1nc2c3c(ccc2s1)OCC3` [Example 158]: the IC50 was 100 to 1000 nM on DYRK1A, no less than 1000 nM at DYRK3, no less than 1000 nM at DYRK2 and 100 to 1000 nM at DYRK1B.

As for `C[C@H]1C[C@@H]2[C@H](CO1)NC(=O)N2c1nc2c3c(ccc2s1)OCO3` [Example 139, (3aR,6S,7aR)-1-(2H-[1,3]dioxolo[4,5-e][1,3]benzothiazol-7-yl]-6-methylhexahydropyrano[3,4-d]imidazol-2(3H)-one], the concentration for half-maximal inhibition (IC50) is less than 10 nM on DYRK1A, 10 to 100 nM at DYRK3, 100 to 1000 nM on DYRK2 and less than 10 nM on DYRK1B.

For `CCN1CC[C@H]2NC(=O)N(c3nc4c5c(ccc4s3)OCC5)[C@H]2C1` (relative stereo) [Example 11, cis-3-(7,8-dihydrofuro[3,2-e][1,3]benzothiazol-2-yl)-5-ethyloctahydro-2H-imidazo[4,5-c]pyridin-2-one], the IC50 was 10 to 100 nM at DYRK1A, no less than 1000 nM on DYRK3, no less than 1000 nM on DYRK2 and 10 to 100 nM on DYRK1B.

In the case of `O=C1N[C@H]2CO[C@@H](CF)C[C@H]2N1c1nc2c3c(ccc2s1)OCCO3` [Example 41, (3aR,6R,7aR)-1-(7,8-dihydro[1,4]dioxino[2,3-e][1,3]benzothiazol-2-yl)-6-(fluoromethyl)hexahydropyrano[3,4-d]imidazol-2(3H)-one], the 50% inhibitory concentration (IC50) at DYRK1A is less than 10 nM; at DYRK3 it was 10 to 100 nM; on DYRK2 it was 100 to 1000 nM; on DYRK1B, less than 10 nM.

As for `O=C1N[C@H]2CCN(C3CC3)C[C@H]2N1c1nc2c3c(ccc2s1)OCCO3` (single isomer, unassigned) [Example 34], the IC50 was less than 10 nM at DYRK1A, no less than 1000 nM at DYRK3, no less than 1000 nM at DYRK2 and 10 to 100 nM on DYRK1B.
